From patent US20240336627A1, “NOVEL COMPOUNDS FOR THE DIAGNOSIS OF TDP-43 PROTEINOPATHIES” (AC IMMUNE SA, priority 2021, published 2024)
Marks after values point to notes of the source that are not given here.

Target: T1, Human brain derived TDP-43 aggregates (Homo sapiens, UniProt Q13148)
T1 construct: A sample of brain tissue (frontal or temporal cortex) was homogenized; from tissue; host or cells: sarkosyl-insoluble fraction of human FTD brain (frontal or temporal cortex)
Experiment: Micro-radiobinding competition assay on human FTD sarkosyl-insoluble brain extracts
Assay type: binding
Conditions: for Ki: 0.24 nM to 2 μM test compound; for Human brain derived TDP-43 aggregates Mean % competition at 250 nM: 250 nM test compound; for Human brain derived TDP-43 aggregates Mean % competition at 2 μM: 2 μM test compound
Method: Human brain extracts were prepared as described in Laferriere et al., 2019, Nature Neurosc. A sample of brain tissue (frontal or temporal cortex) was homogenized at 1:4 (w/v) ratio in the homogenization-solubilization (HS) buffer at 4° C. using tissue homogenizer (Precellys) with CKmix homogenization tubes. The following sequence was used for homogenization: 3 cycles of 30 seconds at 5000 rpm (with 15 seconds pause between each cycle). Homogenized samples were aliquoted and stored at −80° C. in 1.5 mL low protein binding tubes.
Brain homogenates were thawed on ice and resuspended in HS buffer to obtain a final concentration of 2% sarkosyl, 1 unit/μL Benzonase and 1 mM MgCl2. The samples were then incubated at 37° C. under constant shaking at 600 rpm on a thermomixer for 45 minutes (min). The supernatants were collected in a new tube (sarkosyl-soluble fraction, S1). The pellet was resuspended in 1000 μL of myelin floatation buffer and centrifuged at 20,000 g for 60 min at 4° C. The supernatant was carefully removed to remove all the floating lipids. This step was repeated if all the lipids could not be removed in a single step. The pellet was subsequently washed with Phosphate-Buffered Saline (PBS) and centrifuged for 30 min at 20,000 g at 4° C. The final pellet was resuspended in 200 μL PBS and stored at −80° C. (sarkosyl-insoluble fraction). The samples were analyzed by immunoblotting in denaturing conditions.
Human FTD sarkosyl-insoluble brain extracts were spotted onto microarray slides. The slides were incubated with [^3H]-Compound 52 or [^3H]-Compound 16 ligands at 75 nM or 40 nM, respectively, and the example compounds (non-radiolabelled) at 2 μM and 250 nM. In some cases, the non-radiolabelled example compounds were further assessed for a range of different concentrations, varying from 0.24 nM to 2 μM for determination of the inhibition constant (Ki). After incubation, slides were washed and scanned by a real-time autoradiography system (BeaQuant, ai4R). Quantification of the signal was performed by using the Beamage image analysis software (ai4R). Non-specific signal was determined with an excess of non-radiolabelled compound 52 or compound 16 (2 μM) and specific binding was calculated by subtracting the non-specific signal from the total signal. Competition was calculated as percent, where 0% was defined as the specific binding in the presence of vehicle and 100% as the values obtained in the presence of excess of the non-radiolabelled compound 52 or compound 16. Ki values were calculated in GraphPad Prism7 by applying a nonlinear regression curve fit using a one site, specific binding model. Measurements were performed with at least two technical replicates in the two-concentration competition experiment and with one technical replicate in the experiments including a range of concentrations. For compounds tested in more than one experiment, the mean of the replicates or Ki values in independent experiments is reported.

[1] = radioligand [3H]-Compound 52 (75 nM)
[2] = radioligand [3H]-Compound 16 (40 nM)

T1 sequence (Q13148 whole entry): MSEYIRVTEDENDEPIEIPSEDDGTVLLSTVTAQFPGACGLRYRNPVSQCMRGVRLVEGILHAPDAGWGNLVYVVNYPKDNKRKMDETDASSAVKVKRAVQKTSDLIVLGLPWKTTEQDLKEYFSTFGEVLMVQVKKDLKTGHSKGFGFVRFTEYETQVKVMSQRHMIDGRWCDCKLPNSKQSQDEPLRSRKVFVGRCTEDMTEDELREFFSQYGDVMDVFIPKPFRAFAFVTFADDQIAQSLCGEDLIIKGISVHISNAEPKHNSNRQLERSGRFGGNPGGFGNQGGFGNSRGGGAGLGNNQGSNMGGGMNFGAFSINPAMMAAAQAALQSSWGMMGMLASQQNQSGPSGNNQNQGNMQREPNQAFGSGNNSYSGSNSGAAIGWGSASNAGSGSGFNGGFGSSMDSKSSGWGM

Row | Structure (SMILES) | Ki [1] | Human brain derived TDP-43 aggregates Mean % competition at 250 nM [1] | Human brain derived TDP-43 aggregates Mean % competition at 2 μM [1] | Human brain derived TDP-43 aggregates Mean % competition at 250 nM [2] | Human brain derived TDP-43 aggregates Mean % competition at 2 μM [2] | Ki [2]
1 | Cn1cc(N2CCc3nc(-c4ccc(N5CC[C@@H](F)C5)nc4)sc3C2=O)cn1 [Example 1, (R)-2-(6-(3-fluoropyrrolidin-1-yl)pyridin-3-yl)-5-(1-methyl-1H-pyrazol-4-yl)-6,7-dihydrothiazolo[5,4-c]pyridin-4(5H)-one] | 0.0187 µM |  |  |  |  | 
2 | Cn1cc(N2CCc3nc(-c4ccc(N5CCC[C@@H](F)C5)nc4)sc3C2=O)cn1 [Example 2, (R)-2-(6-(3-fluoropiperidin-1-yl)pyridin-3-yl)-5-(1-methyl-1H-pyrazol-4-yl)-6,7-dihydrothiazolo[5,4-c]pyridin-4(5H)-one] | 0.0717 µM | 61.0ª % | 92.5ª % |  |  | 
3 | Nc1cc(N2CCc3nc(-c4ccc(N5CCCC5)nc4)sc3C2=O)ccc1F [Example 3, 5-(3-amino-4-fluorophenyl)-2-(6-(pyrrolidin-1-yl)pyridin-3-yl)-6,7-dihydrothiazolo[5,4-c]pyridin-4(5H)-one] | 0.0731 µM | 62.2ª % | 91.2ª % |  |  | 
4 | Cn1cc(N2CCc3nc(-c4ccc(N5CC[C@H](F)C5)nc4)sc3C2=O)cn1 [Example 13] |  | 69.4ª % | 105.0ª % |  |  | 
5 | Nc1cccc(N2CCc3nc(-c4ccc(N5CCCC5)nc4)sc3C2=O)c1F [Example 14] | 0.0588 µM | 44.0ª % | 85.7ª % |  |  | 
6 | Nc1ccc(N2CCc3nc(-c4ccc(N5CCCC5)nc4)sc3C2=O)cc1F [Example 15] | 0.139 µM | 64.6ª % | 96.4ª % |  |  | 
7 | N#Cc1c(N)cccc1N1CCc2nc(-c3ccc(N4CCCC4)nc3)sc2C1=O [Example 16, 2-amino-6-(4-oxo-2-(6-(pyrrolidin-1-yl)pyridin-3-yl)-6,7-dihydrothiazolo[5,4-c]pyridin-5(4H)-yl)benzonitrile] | 0.081 µM | 46.0ª % | 83.2ª % |  |  | 
8 | N#Cc1ccc(N2CCc3nc(-c4ccc(N5CCCC5)nc4)sc3C2=O)cc1N [Example 17] |  | 82.0ª % | 95.0ª % |  |  | 
9 | N#Cc1cc(N2CCc3nc(-c4ccc(N5CCCC5)nc4)sc3C2=O)ccc1N [Example 18] | 0.0686 µM | 76.2ª % | 102.0ª % |  |  | 
10 | N#Cc1ccc(N2CCc3nc(-c4ccc(N5CC[C@@H](F)C5)nc4)sc3C2=O)cc1N [Example 19] | 0.0542 µM | 76.9ª % | 92.1ª % |  |  | 
11 | N#Cc1cc(N2CCc3nc(-c4ccc(N5CC[C@@H](F)C5)nc4)sc3C2=O)ccc1N [Example 20] | 0.161 µM | 66.7ª % | 88.3ª % |  |  | 
12 | N#Cc1c(N)cccc1N1CCc2nc(-c3ccc(N4CC[C@H](F)C4)nc3)sc2C1=O [Example 21, (S)-2-amino-6-(2-(6-(3-fluoropyrrolidin-1-yl)pyridin-3-yl)-4-oxo-6,7-dihydrothiazolo[5,4-c]pyridin-5(4H)-yl)benzonitrile] |  | 22.7ª % | 40.1ª % |  |  | 
13 | N#Cc1ccc(N2CCc3nc(-c4ccc(N5CC[C@H](F)C5)nc4)sc3C2=O)cc1N [Example 22] |  | 64.2ª % | 80.3ª % |  |  | 
14 | N#Cc1cc(N2CCc3nc(-c4ccc(N5CC[C@H](F)C5)nc4)sc3C2=O)ccc1N [Example 23] | 0.1 µM | 35.5ª % | 76.1ª % |  |  | 
15 | Nc1cccc(N2CCc3nc(-c4ccc(N5CC[C@@H](F)C5)nc4)sc3C2=O)c1F [Example 24] | 0.11 µM | 56.9ª % | 84.1ª % |  |  | 
16 | Nc1cc(N2CCc3nc(-c4ccc(N5CC[C@@H](F)C5)nc4)sc3C2=O)ccc1F [Example 25] |  | 66.6ª % | 83.0ª % |  |  | 

Row | Structure (SMILES) | Ki [1] | Human brain derived TDP-43 aggregates Mean % competition at 250 nM [1] | Human brain derived TDP-43 aggregates Mean % competition at 2 μM [1] | Human brain derived TDP-43 aggregates Mean % competition at 250 nM [2] | Human brain derived TDP-43 aggregates Mean % competition at 2 μM [2] | Ki [2]
17 | Nc1cc(N2CCc3nc(-c4ccc(N5CC[C@H](F)C5)nc4)sc3C2=O)ccc1F [Example 26, (S)-5-(3-amino-4-fluorophenyl)-2-(6-(3-fluoropyrrolidin-1-yl)pyridin-3-yl)-6,7-dihydrothiazolo[5,4-c]pyridin-4(5H)-one] | 0.0099 µM | 40.8ª % | 70.8ª % |  |  | 
18 | Cn1cc(N2CCc3nc(-c4ccc(N5CC[C@@H](F)C5)cc4)sc3C2=O)cn1 [Example 27] | 0.128 µM | 54.3ª % | 80.2ª % |  |  | 
19 | Cn1cc(N2CCc3nc(-c4ccc(N5CC[C@H](F)C5)cc4)sc3C2=O)cn1 [Example 28] | 0.111 µM | 56.5ª % | 79.7ª % |  |  | 
20 | N#Cc1cc(N2CCc3nc(-c4ccc(N5CCC[C@@H](F)C5)nc4)sc3C2=O)ccc1N [Example 29] | 0.0277 µM | 42.6ª % | 73.9ª % |  |  | 
21 | N#Cc1ccc(N2CCc3nc(-c4ccc(N5CCC[C@@H](F)C5)nc4)sc3C2=O)cc1N [Example 30] | 0.0866 µM | 55.9ª % | 75.7ª % |  |  | 
22 | N#Cc1ccc(N2CCc3nc(-c4ccc(N5CCC[C@H](F)C5)nc4)sc3C2=O)cc1N [Example 31] | 0.101 µM | 67.6ª % | 79.7ª % |  |  | 
23 | N#Cc1cc(N2CCc3nc(-c4ccc(N5CCC[C@H](F)C5)nc4)sc3C2=O)ccc1N [Example 32] |  | 44.0ª % | 80.9ª % |  |  | 
24 | Nc1cc(N2CCc3nc(-c4ccc(N5CCC[C@H](F)C5)nc4)sc3C2=O)ccc1F [Example 33] | 0.144 µM | 52.1ª % | 81.0ª % |  |  | 
25 | Nc1cc(N2CCc3nc(-c4ccc(N5CCCC5)cn4)sc3C2=O)ccc1F [Example 34] |  | 72.8ª % | 67.9ª % |  |  | 
26 | Nc1cc(N2CCc3nc(-c4cnc(N5CC[C@@H](F)C5)cn4)sc3C2=O)ccc1F [Example 35] |  | 53.0ª % | 74.6ª % |  |  | 
27 | Nc1cc(N2CCc3nc(-c4cnc(N5CCC[C@H](F)C5)cn4)sc3C2=O)ccc1F [Example 36] |  | 51.0ª % |  |  |  | 
28 | Nc1cc(N2CCc3nc(-c4cnc(N5CC[C@H](F)C5)cn4)sc3C2=O)ccc1F [Example 37] | 0.0799 µM | 54.3ª % | 74.9ª % |  |  | 
29 | Nc1cccc(N2CCc3nc(-c4cnc(N5CC[C@@H](F)C5)cn4)sc3C2=O)c1F [Example 38] | 0.114 µM | 46.3ª % | 74.0ª % |  |  | 
30 | N#Cc1c(N)cccc1N1CCc2nc(-c3cnc(N4CCC(F)CC4)cn3)sc2C1=O [Example 39] |  |  |  | 64.5^c % | 77.4^c % | 0.148 µM
31 | N#Cc1c(N)cccc1N1CCc2nc(-c3cnc(N4CC[C@@H](F)C4)cn3)sc2C1=O [Example 40] |  |  |  | 54.6^c % | 77.9^c % | 0.104 µM
